Test results taken from ChEMBL document CHEMBL6127078, “Discovery of 7-(1-methyl-1H-pyrazol-4-yl)-1,6-naphthyridine derivatives as potent inhibitors of rearranged during transfection (RET) and RET solvent-front mutants for overcoming selpercatinib resistance” (Eur J Med Chem, 2024).

Legend:
[1] = biological target: Fibroblast growth factor receptor 4 (Homo sapiens, UniProt P22455); experiment: Inhibition of FGFR4 (unknown origin) by FRET-based Z-Lyte kinase assay
[2] = biological target: Proto-oncogene tyrosine-protein kinase receptor Ret (Homo sapiens, UniProt P07949, V804L); experiment: Inhibition of RET V804L mutant (unknown origin) by FRET-based ZLyte kinase assay
Proto-oncogene tyrosine-protein kinase receptor Ret (Homo sapiens, UniProt P07949, V804L), sequence (P07949 29-1114 V804L limits assumed): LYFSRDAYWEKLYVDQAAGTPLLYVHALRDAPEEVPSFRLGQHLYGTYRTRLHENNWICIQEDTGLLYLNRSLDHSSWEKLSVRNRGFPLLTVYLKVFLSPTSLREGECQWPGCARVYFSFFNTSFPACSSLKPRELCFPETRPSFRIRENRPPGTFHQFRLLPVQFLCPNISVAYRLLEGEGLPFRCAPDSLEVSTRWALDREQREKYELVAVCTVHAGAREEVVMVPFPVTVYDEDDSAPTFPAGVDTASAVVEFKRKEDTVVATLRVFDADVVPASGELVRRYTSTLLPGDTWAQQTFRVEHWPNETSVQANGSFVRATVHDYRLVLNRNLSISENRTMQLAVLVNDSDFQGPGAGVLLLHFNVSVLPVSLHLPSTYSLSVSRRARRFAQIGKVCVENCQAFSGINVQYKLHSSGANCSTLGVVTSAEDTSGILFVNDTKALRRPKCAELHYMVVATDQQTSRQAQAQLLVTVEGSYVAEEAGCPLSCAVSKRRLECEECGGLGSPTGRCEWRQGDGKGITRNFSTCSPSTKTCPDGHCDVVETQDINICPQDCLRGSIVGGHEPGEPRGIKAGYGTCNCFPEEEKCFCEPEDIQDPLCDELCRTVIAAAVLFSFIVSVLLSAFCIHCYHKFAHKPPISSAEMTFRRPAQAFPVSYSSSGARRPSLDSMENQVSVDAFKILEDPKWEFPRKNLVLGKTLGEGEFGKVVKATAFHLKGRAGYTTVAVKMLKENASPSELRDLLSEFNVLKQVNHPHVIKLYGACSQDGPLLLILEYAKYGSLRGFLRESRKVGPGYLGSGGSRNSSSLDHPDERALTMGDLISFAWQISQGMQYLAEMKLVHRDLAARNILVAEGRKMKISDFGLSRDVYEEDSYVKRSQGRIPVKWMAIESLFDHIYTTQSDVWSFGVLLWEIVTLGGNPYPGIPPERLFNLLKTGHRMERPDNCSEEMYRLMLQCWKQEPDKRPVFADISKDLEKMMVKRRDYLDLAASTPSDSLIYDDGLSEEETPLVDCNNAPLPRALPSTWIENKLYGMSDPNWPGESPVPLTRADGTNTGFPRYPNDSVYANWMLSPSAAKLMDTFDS

[3] = Toxicity in mouse allografted with mouse BaF3 cells harbouring KIF5B-RET-wild type assessed as mortality at 10 mg/kg BID measured upto 14 days; type: organism-based; details: in vivo, 336 h, time < 14 day
[4] = Toxicity in mouse allografted with mouse BaF3 cells harbouring KIF5B-RET G810R mutant assessed as drug tolerance at 10 to 30 mg/kg BID measured upto 14 days; type: organism-based; details: in vivo, 336 h, dose 10-30 mg/kg, time < 14 day
[5] = Half life in male Sprague-Dawley rat at 1 mg/kg, iv; type: ADME, organism-based; details: in vivo
[6] = biological target: Proto-oncogene tyrosine-protein kinase receptor Ret (Homo sapiens, UniProt P07949, G810R); experiment: Inhibition of RET G810R mutant (unknown origin) by FRET-based ZLyte kinase assay
Proto-oncogene tyrosine-protein kinase receptor Ret (Homo sapiens, UniProt P07949, G810R), sequence (P07949 29-1114 G810R limits assumed): as the sequence (P07949 29-1114 V804L limits assumed) above, with L776V, G782R counted along it

[7] = biological target: Proto-oncogene tyrosine-protein kinase receptor Ret (Homo sapiens, UniProt P07949, M918T); experiment: Inhibition of RET M918T mutant (unknown origin) by FRET-based ZLyte kinase assay
[8] = biological target: Epithelial discoidin domain-containing receptor 1 (Homo sapiens, UniProt Q08345); experiment: Inhibition of DDR1 (unknown origin) by FRET-based Z-Lyte kinase assay
[9] = Clearance in male Sprague-Dawley rat at 1 mg/kg, iv; type: ADME, organism-based; details: in vivo
[10] = Toxicity in mouse allografted with mouse BaF3 cells harbouring KIF5B-RET G810R mutant assessed as effect on body weight loss at 10 to 30 mg/kg BID measured upto 14 days; type: organism-based; details: in vivo, 336 h, dose 10-30 mg/kg, time < 14 day
[11] = Half life in male Sprague-Dawley rat at 5 mg/kg, IG; type: ADME, organism-based; details: in vivo, po
[12] = biological target: Proto-oncogene tyrosine-protein kinase receptor Ret (Homo sapiens, UniProt P07949, G810C); experiment: Inhibition of RET G810C mutant (unknown origin) by FRET-based ZLyte kinase assay
[13] = biological target: Proto-oncogene tyrosine-protein kinase receptor Ret (Homo sapiens, UniProt P07949); experiment: Inhibition of wild type RET (unknown origin) by FRET-based ZLyte kinase assay
Proto-oncogene tyrosine-protein kinase receptor Ret (Homo sapiens, UniProt P07949), sequence (P07949 whole entry): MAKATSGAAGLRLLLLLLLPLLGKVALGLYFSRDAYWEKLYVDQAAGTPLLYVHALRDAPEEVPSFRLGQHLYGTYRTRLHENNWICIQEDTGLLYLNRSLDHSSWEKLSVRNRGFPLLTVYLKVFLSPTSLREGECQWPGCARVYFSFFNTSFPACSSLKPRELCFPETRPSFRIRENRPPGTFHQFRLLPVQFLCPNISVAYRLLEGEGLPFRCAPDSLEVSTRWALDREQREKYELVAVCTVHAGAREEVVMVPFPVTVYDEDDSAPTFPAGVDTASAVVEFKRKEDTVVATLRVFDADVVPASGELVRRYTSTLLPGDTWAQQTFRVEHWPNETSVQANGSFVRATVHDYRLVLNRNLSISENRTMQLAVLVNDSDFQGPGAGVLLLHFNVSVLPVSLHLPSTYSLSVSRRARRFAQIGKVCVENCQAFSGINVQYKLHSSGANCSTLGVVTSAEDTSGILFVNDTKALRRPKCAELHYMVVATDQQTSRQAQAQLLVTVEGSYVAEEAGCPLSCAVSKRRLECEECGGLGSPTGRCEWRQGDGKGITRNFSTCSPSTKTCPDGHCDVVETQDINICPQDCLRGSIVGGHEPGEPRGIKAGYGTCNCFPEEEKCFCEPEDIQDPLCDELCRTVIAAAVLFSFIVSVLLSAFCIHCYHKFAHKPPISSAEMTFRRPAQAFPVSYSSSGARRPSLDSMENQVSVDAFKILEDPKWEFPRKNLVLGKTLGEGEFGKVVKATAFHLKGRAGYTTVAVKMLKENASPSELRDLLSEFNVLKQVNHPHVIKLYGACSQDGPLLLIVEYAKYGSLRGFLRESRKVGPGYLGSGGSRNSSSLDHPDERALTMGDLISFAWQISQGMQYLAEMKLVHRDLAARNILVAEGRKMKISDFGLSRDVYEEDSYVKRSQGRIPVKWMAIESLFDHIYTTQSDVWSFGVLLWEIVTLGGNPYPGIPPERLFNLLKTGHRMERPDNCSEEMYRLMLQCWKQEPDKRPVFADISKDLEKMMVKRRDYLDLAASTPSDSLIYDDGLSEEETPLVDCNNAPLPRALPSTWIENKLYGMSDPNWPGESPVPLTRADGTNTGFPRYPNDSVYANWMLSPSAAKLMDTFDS

[14] = Clearance in male Sprague-Dawley rat at 5 mg/kg, IG; type: ADME, organism-based; details: in vivo, po
[15] = Cmax in male Sprague-Dawley rat at 1 mg/kg, iv; type: ADME, organism-based; details: in vivo
[16] = AUC (0 to infinity) in male Sprague-Dawley rat at 1 mg/kg, iv; type: ADME, organism-based; details: in vivo
[17] = biological target: Proto-oncogene tyrosine-protein kinase receptor Ret (Homo sapiens, UniProt P07949, V804M); experiment: Inhibition of RET V804M mutant (unknown origin) by FRET-based ZLyte kinase assay
Proto-oncogene tyrosine-protein kinase receptor Ret (Homo sapiens, UniProt P07949, V804M), sequence (P07949 29-1114 V804M limits assumed): as the sequence (P07949 29-1114 V804L limits assumed) above, with L776M counted along it

[18] = biological target: Proto-oncogene tyrosine-protein kinase receptor Ret (Homo sapiens, UniProt P07949, G810S); experiment: Inhibition of RET G810S mutant (unknown origin) by FRET-based ZLyte kinase assay
[19] = Oral bioavailability in male Sprague-Dawley rat at 5 mg/kg, IG; type: ADME, organism-based; details: in vivo
[20] = biological target: Vascular endothelial growth factor receptor 1 (Homo sapiens, UniProt P17948); experiment: Inhibition of FLT1 (unknown origin) by FRET-based Z-Lyte kinase assay
[21] = AUC (0 to infinity) in male Sprague-Dawley rat at 5 mg/kg, IG; type: ADME, organism-based; details: in vivo, po
[22] = biological target: Vascular endothelial growth factor receptor 3 (Homo sapiens, UniProt P35916); experiment: Inhibition of FLT4 (unknown origin) by FRET-based Z-Lyte kinase assay
[23] = biological target: Vascular endothelial growth factor receptor 2 (Homo sapiens, UniProt P35968); experiment: Inhibition of KDR (unknown origin) by FRET-based Z-Lyte kinase assay
[24] = Apparent volume of distribution in male Sprague-Dawley rat at 1 mg/kg, iv; type: ADME, organism-based; details: in vivo, read-out: Vz
[25] = Cmax in male Sprague-Dawley rat at 5 mg/kg, IG; type: ADME, organism-based; details: in vivo, po
[26] = Tmax in male Sprague-Dawley rat at 5 mg/kg, IG; type: ADME, organism-based; details: in vivo, po
[27] = biological target: Tyrosine-protein kinase JAK2 (Homo sapiens, UniProt O60674); experiment: Inhibition of JAK2 (unknown origin) by FRET-based Z-Lyte kinase assay
[28] = Toxicity in mouse allografted with mouse BaF3 cells harbouring KIF5B-RET-wild type assessed as drug tolerance at 10 mg/kg BID measured upto 14 days; type: organism-based; details: in vivo, 336 h, time < 14 day
[29] = Apparent volume of distribution in male Sprague-Dawley rat at 5 mg/kg, IG; type: ADME, organism-based; details: in vivo, po
[30] = Toxicity in mouse allografted with mouse BaF3 cells harbouring KIF5B-RET G810R mutant assessed as mortality at 10 to 30 mg/kg BID measured upto 14 days; type: organism-based; details: in vivo, 336 h, dose 10-30 mg/kg, time < 14 day
[31] = biological target: T1, Receptor-type tyrosine-protein kinase FLT3 (Homo sapiens, UniProt P36888); experiment: Inhibition of FLT3 (unknown origin) by FRET-based Z-Lyte kinase assay
T1 sequence (P36888 whole entry): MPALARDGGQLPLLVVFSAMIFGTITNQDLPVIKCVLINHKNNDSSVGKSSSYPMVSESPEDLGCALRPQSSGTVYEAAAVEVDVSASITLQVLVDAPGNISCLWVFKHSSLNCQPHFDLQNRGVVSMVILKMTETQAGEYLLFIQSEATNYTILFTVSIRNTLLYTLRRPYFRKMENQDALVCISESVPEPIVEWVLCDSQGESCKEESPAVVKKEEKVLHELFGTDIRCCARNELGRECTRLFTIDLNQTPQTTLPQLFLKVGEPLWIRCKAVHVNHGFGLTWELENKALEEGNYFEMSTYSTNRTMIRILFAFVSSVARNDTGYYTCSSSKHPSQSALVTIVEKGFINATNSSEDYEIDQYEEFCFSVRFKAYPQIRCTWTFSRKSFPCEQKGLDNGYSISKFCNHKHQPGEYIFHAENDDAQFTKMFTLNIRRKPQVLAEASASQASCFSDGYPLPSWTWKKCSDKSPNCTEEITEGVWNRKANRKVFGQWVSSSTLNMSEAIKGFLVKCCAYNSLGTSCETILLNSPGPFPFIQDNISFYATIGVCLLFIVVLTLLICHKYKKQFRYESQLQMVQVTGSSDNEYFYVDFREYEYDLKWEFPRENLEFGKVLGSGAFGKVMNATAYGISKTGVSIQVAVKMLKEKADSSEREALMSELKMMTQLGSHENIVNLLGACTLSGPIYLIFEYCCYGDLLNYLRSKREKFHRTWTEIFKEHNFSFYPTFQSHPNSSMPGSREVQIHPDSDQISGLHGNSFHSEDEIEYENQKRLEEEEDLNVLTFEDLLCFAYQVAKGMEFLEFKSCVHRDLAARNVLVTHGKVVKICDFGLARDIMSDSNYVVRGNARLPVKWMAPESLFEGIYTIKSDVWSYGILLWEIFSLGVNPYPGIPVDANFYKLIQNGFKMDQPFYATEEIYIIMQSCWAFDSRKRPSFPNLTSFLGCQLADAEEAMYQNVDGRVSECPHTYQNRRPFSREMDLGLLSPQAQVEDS

[32] = Toxicity in mouse allografted with mouse BaF3 cells harbouring KIF5B-RET-wild type assessed as effect on body weight loss at 10 mg/kg BID measured upto 14 days; type: organism-based; details: in vivo, 336 h, time < 14 day

COc1ccc(CN2C3CC2CN(c2ccc(-c4nc(-c5cnn(C)c5)cc5ncccc45)cn2)C3)cc1C#N
IC50 [1]: 113 nM
IC50 [2]: 0.2 nM
Activity [3]: Non-Toxic
Activity [4]: Non-Toxic
half-life [5]: 5 h
IC50 [6]: 8.3 nM
IC50 [7]: 0.4 nM
IC50 [8]: 334 nM
clearance [9]: 40 mL/min/kg
Activity [10]: Non-Toxic
half-life [11]: 4.6 h
IC50 [12]: 7.1 nM
IC50 [13]: 3.2 nM
CL/F [14]: 122 mL/min/kg
Cmax [15]: 265 ng/mL
AUC(0-inf) [16]: 451 ng·h/mL
IC50 [17]: 1.8 nM
IC50 [18]: 5.7 nM
bioavailability [19]: 30.4%
IC50 [20]: 34.9 nM
AUC(0-inf) [21]: 686 ng·h/mL
IC50 [22]: 5.1 nM
IC50 [23]: 27.3 nM
Vd [24]: 17.2 L/kg
Cmax [25]: 140 ng/mL
Tmax [26]: 1.6 h
IC50 [27]: 2650 nM
Activity [28]: Non-Toxic
Vz [29]: 48.1 L/kg
Activity [30]: Non-Toxic
IC50 [31]: 52.7 nM
Activity [32]: Non-Toxic
